Reference: patent publication US20220184003A1, “Formulations of Cannabidiol Derivatives and Their Use as Modulators of Cannabinoid Receptor Type 2 (CB2)” (EMERALD HEALTH PHARMACEUTICALS INC, priority 2019, published 2022)

Key:
[1] = Stability of VCE-004.8 during phytosomization (reflux in ethyl acetate); format: physicochemical; conditions: area %
Experimental: FIG. 8 depicts a stability of VCE-004.8 during phytosomization, at reflux in ethyl acetate at different times (45 min, 6 hr and 24 hr).
A preliminary investigation of the compound stability gave indication that the active principle is stable in the process conditions, although an impurity peak not detected in the starting material and almost neglectable at […], increased after 6 hr (1.7% in area %) and grew after 24 hr (6.2% in area %), as shown in FIG. 8.

CB1 receptor = CB1 receptor (Homo sapiens, UniProt P21554); test: Receptor screening study, CB1 receptor affinity; format: binding
Sequence of CB1 receptor (P21554 whole entry): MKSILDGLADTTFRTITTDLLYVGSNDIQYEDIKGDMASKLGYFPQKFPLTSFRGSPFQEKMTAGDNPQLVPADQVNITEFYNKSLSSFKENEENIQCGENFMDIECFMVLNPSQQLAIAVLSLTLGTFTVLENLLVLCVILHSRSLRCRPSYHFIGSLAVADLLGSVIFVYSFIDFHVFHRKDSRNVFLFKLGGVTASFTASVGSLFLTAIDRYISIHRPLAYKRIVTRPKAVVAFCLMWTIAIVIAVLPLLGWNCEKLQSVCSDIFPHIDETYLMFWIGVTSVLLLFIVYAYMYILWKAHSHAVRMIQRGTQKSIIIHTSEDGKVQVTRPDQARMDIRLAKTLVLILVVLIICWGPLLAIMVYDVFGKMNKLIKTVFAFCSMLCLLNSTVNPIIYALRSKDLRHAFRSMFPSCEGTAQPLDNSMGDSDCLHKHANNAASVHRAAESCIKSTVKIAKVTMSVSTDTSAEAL

in vitro = in vitro ADME; conditions: plasma
[2] = tested on: Experimental Autoimmune Encephalomyelitis (EAE) model; test: Experimental autoimmune encephalomyelitis model; format: in vivo, C57BL/6 female mice
Experimental: EAE was induced in C57BL/6 female mice at 6-8 weeks of age by subcutaneous immunization with MOG35-55 (300 μg: peptide synthesis section, CBM, CSIC. Madrid, Spain) and 200 μg of Mycobacterium tuberculosis (H37Ra Difco, Franklin Lakes, N.J., USA) in a 1:1 mix with […]. On the same day and 2 days later, mice were injected intraperitoneally with 200 ng of pertussis toxin (Sigma) in 0.1 mL PBS. […] The mice were examined daily for clinical signs of EAE and disease scores were measured as follows: 0, no disease; 1, limb tail; 2, limb tail and hind limb weakness; 3, hind limb paralysis; 4, hind limb and front limb paralysis; 5, moribund and death. All animals were sacrificed at 28 days for further analysis,
Mice were anesthetized by i.p. administration with a ketamine-xylazine solution and they were transcardially perfused with saline 0.9%. The spinal cord was obtained by extrusion with saline. […]
For IHC analysis, free-floating thoracic spinal cord (50 μm) sections were washed with 0.1M PB. […] Samples were photographed, digitalized using a Leica DFC420c camera and analyzed using Image J software. Myelin integrity was analyzed using the Hito CryoMyelmStain™ Kit (Gold phosphate complex Myelin Staining Kit) following manufacturer's recommendation (Hitobiotech Corp., Kingsport, Tenn., USA). […]

[3] = tested on: cuprizone/rapamycin (C/R) mouse model; test: Cuprizone/rapamycin model, myelin assessment in grey and white matter; format: in vivo, Male C57BL/6J
Experimental: Myelin assessment in grey and white matter was evaluated via: (1) PLP staining and density in the hippocampus and cortex; and (2) PPD staining and manual counts in the corpus callosum.
Male C57BL/6J (n=5 or 12/group) were treated for 12 weeks with C/R to cause demyelination of white and gray matter regions of the brain. […] Thereafter, the brains were harvested and processed for immunohistochemical staining and quantification of myelinated axons in gray matter (hippocampus (HIP), cerebral cortex (CTX)) by proteolipid protein (PLP) staining and white matter (corpus callosum CC)) by paraphenylenediamine (PPD) staining.

[4] = oral 5, 10, 20 mg/kg/day for 6 weeks, vs vehicle control

C=C(C)C1CCC(C)=C[C@H]1C1=C(O)C(=O)C(CCCCC)=C(NCc2ccccc2)C1=O (stereo partly drawn) [VCE-004.8, (1′R,6′R)-3-(Benzylamine)-6-hydroxy-3′-methyl-4-pentyl-6′-(prop-1-en-2-yl)[1,1′-bi(cyclohexane)]-2′,3,6-triene-2,5-dione]
impurity peak ([1]; after 6 hr at reflux in ethyl acetate): 1.7% | impurity peak ([1]; after 24 hr at reflux in ethyl acetate): 6.2% | affinity for the CB1 receptor (CB1 receptor; at a concentration of 10 μM (4336 ng/mL)): did not show affinity | affinity for the CB1 receptor (CB1 receptor; receptor screening study): no detectable affinity | fraction unbound (in vitro): < 0.01 | microglial reactivity and infiltration of inflammatory cells ([2]; EAE animals, myelin structure preserved): significantly reduced | therapeutic effect in EAE model ([2]; doses of 5 mg/kg, 10 mg/kg, and 20 mg/kg): highly significant therapeutic effect | levels of myelinated axons in white matter (corpus callosum), dose relation [3]: dose related effect | area of PLP staining / myelination in the cortex [3, 4]: no significant increase | area of PLP staining / myelination in the hippocampus [3, 4]: no significant increase
